Read-outs that look alike come from different tables or passages of the source.
Tests used:
[1] = Single-dose pharmacokinetic study, fasting vs high-fat meal; conditions: human, in vivo, po, 80 mg, healthy volunteers
[2] = Impurity B content of process samples on storage at room temperature (HPLC); assay type: physicochemical; conditions: 20 days (Laboratory placement)
From the text: Impurity B (Impurity RRT1.5, i.e., relative retention time 1.5) is a degradation impurity identified in the stability studies of this formulation and is a specific impurity that requires close monitoring. […] Therefore, the study of Impurity B content is also a key point of the invention. The method for determining the content of Impurity B is as follows: [table] [table] • Heptafluorobutyric acid: Chromatographic grade Water: Ultrapure water Ammonia solution: Chromatographic grade or analytical grade • Acetonitrile: Chromatographic grade Methanol: Chromatographic grade • TY-9591 Reference Standard: In-house preparation or commercially purchased • 3. […]

pH-dependent solubility = assay type: physicochemical; conditions: result in words
From the text: (§1) Drugs can be absorbed at many different sites along the gastrointestinal tract (including the stomach, duodenum, jejunum, ileum, and colon) following oral administration. Due to the significant pH gradient between the stomach (pH 1 - 3.5) and the small intestine (pH 4 - 8), the pH varies at each absorption site. […] In such cases, where the solubility of a drug varies with pH-and specifically when solubility is highest at acidic pH levels-a problem arises: the drug may precipitate out of solution as it passes through the gastrointestinal tract, but the drug should remain in solution to be absorbed, such precipitation may affect the extent and rate of absorption.

Permeability = assay type: in vitro ADME; conditions: result in words
From the text: as §1

[3] = After high-fat meal, single oral dose of 80 mg of Tablet 22
[4] = Fasting, single oral dose of 80 mg of Tablet 22

## [2H]C([2H])([2H])n1cc(-c2ccnc(Nc3cc(NC(=O)C=C)c(N(C)CCN(C)C)cc3OC)n2)c2ccccc21 [TY-9591, N-(2-((2-(dimethylamino)ethyl) (methyl)amine)-4-methoxy-5-((4-(1-deuteriatedmethyl-1H-indol-3-yl)pyrimidin-2-yl)amine)phenyl)acrylamide]
[1]; [3]
  AUC(0-inf): 4350 ng·h/mL
  Cmax: 69 ng/mL
  Tmax: 5.95 h
  half-life: 48.6 h
[1]; After high-fat meal, single oral dose of 80 mg of Tablet 22, read-out: AUC0-72h
  AUC(0-t): 2670 ng·h/mL
[1]; After high-fat meal, single oral dose of 80 mg of Tablet 22, read-out: AUC0-t
  AUC(0-t): 4300 ng·h/mL
[1]; Fasting, single oral dose of 80 mg of Tablet 22 (40 mg*2 tablets)
  Tmax: 5.99 h
[1]; [4]
  AUC(0-inf): 3930 ng·h/mL
  Cmax: 67.8 ng/mL
  half-life: 51.2 h
[1]; Fasting, single oral dose of 80 mg of Tablet 22, read-out: AUC0-72h
  AUC(0-t): 2330 ng·h/mL
[1]; Fasting, single oral dose of 80 mg of Tablet 22, read-out: AUC0-t
  AUC(0-t): 3880 ng·h/mL
[2]
  Impurity B/%: 0.13%
pH-dependent solubility
  solubility at pH 1 (hydrochloric acid) compared to pH 6.8 (sodium hydroxide-sodium dihydrogen phosphate buffer, 25 mM): higher solubility
Permeability
  permeability: moderate permeability

— patent publication EP4803074A1, “PHARMACEUTICAL COMPOSITION OF PYRIMIDINE DERIVATIVE” (TYK Medicines, Inc., priority 2023, dated 2025)
